The text below walks through data of ChEMBL document CHEMBL5291721, “A preclinical secondary pharmacology resource illuminates target-adverse drug reaction associations of marketed drugs” (Nat Commun, 2023).

Experiment [1] addresses Glutamate receptor ionotropic, NMDA 1 (Rattus norvegicus, UniProt P35439).
The target in experiment [2] is T1, Gastrin/cholecystokinin type B receptor (Homo sapiens, UniProt P32239).
T1 sequence (P32239 whole entry): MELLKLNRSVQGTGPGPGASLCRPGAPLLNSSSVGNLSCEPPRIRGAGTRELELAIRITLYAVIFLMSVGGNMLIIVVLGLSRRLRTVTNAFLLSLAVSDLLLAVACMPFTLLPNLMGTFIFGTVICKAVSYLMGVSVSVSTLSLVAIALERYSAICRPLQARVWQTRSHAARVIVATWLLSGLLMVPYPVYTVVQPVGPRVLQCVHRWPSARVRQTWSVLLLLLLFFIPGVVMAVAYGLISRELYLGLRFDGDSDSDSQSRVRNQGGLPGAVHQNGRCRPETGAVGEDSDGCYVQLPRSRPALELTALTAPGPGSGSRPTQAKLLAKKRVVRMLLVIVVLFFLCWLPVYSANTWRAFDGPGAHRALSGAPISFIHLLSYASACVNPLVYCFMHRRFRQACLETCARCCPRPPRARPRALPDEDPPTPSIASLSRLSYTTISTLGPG

For experiment [3], the target named is Muscarinic acetylcholine receptor M3 (Homo sapiens, UniProt P20309).
The target of experiment [4] is T2, Cholecystokinin receptor type A (Homo sapiens, UniProt P32238).
T2 sequence (P32238 whole entry): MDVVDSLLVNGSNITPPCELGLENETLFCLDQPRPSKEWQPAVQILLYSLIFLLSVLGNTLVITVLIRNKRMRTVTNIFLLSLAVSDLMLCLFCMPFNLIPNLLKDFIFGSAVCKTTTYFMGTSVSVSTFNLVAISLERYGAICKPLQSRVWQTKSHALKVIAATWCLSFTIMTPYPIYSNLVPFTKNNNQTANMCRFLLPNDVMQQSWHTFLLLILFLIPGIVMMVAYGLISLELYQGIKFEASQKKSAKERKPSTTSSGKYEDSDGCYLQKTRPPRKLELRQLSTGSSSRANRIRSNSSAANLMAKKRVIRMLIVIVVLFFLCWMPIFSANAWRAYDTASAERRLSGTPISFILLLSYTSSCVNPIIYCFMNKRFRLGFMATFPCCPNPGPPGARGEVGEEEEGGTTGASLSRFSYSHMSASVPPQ

Another experiment addresses Motilin receptor (Homo sapiens, UniProt O43193).
In experiment [5] the target is 3',5'-cyclic-AMP phosphodiesterase 4D (Homo sapiens, UniProt Q08499). It is filed as functional.
For experiment [6], the target named is T3, Alpha-2A adrenergic receptor (Homo sapiens, UniProt P08913).
T3 sequence (P08913 whole entry): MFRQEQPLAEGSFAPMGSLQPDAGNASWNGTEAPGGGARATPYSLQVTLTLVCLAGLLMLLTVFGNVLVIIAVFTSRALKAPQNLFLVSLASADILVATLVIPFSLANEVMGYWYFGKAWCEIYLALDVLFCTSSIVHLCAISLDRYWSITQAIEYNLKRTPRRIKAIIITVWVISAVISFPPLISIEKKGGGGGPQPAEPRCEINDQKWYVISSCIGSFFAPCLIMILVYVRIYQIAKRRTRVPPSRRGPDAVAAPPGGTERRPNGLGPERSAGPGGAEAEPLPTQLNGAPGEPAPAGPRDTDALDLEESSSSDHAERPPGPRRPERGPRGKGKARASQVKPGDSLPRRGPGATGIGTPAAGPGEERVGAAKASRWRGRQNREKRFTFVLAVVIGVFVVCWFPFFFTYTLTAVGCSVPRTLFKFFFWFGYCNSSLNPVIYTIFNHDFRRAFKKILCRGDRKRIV
It is filed as functional, cell-based.

Experiment [7] concerns the target T4, Neuropeptide Y receptor type 1 (Homo sapiens, UniProt P25929).
T4 sequence (P25929 whole entry): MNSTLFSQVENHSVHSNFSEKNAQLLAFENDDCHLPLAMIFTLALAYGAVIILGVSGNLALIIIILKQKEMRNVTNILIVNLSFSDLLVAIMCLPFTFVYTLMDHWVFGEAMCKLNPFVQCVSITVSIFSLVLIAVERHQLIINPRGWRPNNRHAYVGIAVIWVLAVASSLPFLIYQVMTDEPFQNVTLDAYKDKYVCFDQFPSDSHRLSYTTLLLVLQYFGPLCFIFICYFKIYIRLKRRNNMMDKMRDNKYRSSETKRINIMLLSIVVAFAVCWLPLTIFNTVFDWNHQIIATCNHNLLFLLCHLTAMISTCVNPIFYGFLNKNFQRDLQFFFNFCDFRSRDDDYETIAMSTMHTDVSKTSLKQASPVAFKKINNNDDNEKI

The target of another experiment is Melanocortin receptor 3 (Homo sapiens, UniProt P41968).
Experiment [8] deals with T5, 5-hydroxytryptamine receptor 1A (Homo sapiens, UniProt P08908).
T5 sequence (P08908 whole entry): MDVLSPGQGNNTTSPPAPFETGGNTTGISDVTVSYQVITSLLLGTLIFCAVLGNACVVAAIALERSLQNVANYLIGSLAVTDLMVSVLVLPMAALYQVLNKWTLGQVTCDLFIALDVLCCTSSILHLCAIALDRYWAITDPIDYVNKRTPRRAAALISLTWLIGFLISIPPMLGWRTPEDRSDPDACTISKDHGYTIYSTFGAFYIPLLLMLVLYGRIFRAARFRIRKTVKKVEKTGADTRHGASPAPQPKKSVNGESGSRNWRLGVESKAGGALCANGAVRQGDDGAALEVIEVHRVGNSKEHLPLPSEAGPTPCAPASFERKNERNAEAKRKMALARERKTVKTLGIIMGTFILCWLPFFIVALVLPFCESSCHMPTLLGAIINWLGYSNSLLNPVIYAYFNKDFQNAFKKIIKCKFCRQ
It is filed as functional, cell-based.
Further: assay procedure not described here.

Chain of Melanocortin receptor 3 (P41968 whole entry): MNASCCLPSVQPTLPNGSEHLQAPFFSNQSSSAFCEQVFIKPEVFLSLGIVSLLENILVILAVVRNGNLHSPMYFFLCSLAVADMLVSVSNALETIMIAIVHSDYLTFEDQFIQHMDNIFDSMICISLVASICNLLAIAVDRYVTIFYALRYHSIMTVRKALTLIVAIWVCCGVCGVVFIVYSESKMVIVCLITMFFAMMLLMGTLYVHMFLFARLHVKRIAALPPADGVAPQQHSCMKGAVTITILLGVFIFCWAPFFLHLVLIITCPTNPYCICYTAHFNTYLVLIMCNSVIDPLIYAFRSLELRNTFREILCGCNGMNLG
Chain of Motilin receptor (O43193 whole entry): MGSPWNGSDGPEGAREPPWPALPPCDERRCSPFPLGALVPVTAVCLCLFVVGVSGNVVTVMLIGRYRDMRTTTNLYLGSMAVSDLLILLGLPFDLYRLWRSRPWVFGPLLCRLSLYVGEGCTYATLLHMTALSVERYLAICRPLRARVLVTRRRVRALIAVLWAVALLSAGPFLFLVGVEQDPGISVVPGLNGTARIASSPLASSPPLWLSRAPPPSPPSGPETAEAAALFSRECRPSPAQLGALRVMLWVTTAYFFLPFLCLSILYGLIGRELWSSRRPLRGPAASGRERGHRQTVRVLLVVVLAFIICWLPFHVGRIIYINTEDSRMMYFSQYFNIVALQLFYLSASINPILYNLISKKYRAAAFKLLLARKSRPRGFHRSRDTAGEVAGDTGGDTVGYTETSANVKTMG
Chain of Muscarinic acetylcholine receptor M3 (P20309 whole entry): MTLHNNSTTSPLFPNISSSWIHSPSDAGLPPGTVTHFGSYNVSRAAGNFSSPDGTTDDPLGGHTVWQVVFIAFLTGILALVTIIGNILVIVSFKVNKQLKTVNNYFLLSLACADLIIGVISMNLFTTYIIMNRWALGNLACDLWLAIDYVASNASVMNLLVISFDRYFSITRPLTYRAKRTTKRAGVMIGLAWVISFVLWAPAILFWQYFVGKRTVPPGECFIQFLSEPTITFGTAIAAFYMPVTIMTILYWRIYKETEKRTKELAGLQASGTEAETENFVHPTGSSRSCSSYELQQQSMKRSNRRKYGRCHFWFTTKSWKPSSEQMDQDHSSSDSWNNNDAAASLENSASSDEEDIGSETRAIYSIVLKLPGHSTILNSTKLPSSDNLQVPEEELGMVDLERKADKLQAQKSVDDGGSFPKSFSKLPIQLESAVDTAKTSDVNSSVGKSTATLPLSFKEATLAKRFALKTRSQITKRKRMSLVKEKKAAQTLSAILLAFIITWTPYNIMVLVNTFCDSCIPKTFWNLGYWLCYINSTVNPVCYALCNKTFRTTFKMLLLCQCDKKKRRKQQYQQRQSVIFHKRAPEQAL
Chain of 3',5'-cyclic-AMP phosphodiesterase 4D (Q08499 whole entry): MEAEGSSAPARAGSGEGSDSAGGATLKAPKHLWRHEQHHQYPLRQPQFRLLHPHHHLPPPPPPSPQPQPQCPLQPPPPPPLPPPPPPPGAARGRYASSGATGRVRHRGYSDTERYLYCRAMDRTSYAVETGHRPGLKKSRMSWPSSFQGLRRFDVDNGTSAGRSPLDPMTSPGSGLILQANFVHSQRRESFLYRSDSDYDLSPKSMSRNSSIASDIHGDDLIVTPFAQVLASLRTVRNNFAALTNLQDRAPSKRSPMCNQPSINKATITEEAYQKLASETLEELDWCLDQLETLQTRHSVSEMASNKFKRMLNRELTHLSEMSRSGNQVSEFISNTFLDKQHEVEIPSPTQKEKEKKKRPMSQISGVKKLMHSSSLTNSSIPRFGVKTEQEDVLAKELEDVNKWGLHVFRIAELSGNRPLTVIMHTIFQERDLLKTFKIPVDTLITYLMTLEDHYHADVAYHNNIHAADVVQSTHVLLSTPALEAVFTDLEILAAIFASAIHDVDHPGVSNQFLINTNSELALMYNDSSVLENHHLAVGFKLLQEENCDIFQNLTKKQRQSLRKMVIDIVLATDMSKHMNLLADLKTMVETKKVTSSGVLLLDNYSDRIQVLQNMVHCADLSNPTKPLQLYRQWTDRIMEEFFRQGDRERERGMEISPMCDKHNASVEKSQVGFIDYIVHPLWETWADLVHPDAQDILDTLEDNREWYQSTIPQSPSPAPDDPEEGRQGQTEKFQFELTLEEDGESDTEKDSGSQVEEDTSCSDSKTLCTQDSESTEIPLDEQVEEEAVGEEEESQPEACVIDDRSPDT

Take `C=C[C@@]1(C)CC(=O)[C@]2(O)[C@@]3(C)[C@@H](O)CCC(C)(C)[C@@H]3[C@H](OC(=O)CCN(C)C)[C@H](OC(C)=O)[C@@]2(C)O1`: the AC50 – broadly, the concentration at which the activity in the assay is half-maximal – is > 30 µM in experiment [1]; > 30 µM in [2]; > 30 µM in [3]; > 30 µM in [4]; 7.8 µM on Motilin receptor; > 30 µM in [5]. For the same compound, the AC50 (in [6]; in experiment [7]; at Melanocortin receptor 3) was > 30 µM in each case.

Regarding `CC(=O)OCC(=O)[C@@]1(O)CC[C@H]2[C@@H]3CCC4=CC(=O)CC[C@]4(C)C3=CC[C@@]21C` [ANECORTAVE ACETATE], the AC50 in experiment [1] is > 10 µM; in [3], > 30 µM; in experiment [4], > 10 µM; on Motilin receptor, > 10 µM; in experiment [5], > 30 µM; in experiment [6], > 10 µM. For the same compound, the AC50 (in experiment [7]; on Melanocortin receptor 3) was > 10 µM each time.

Regarding `CCN(CC)C(=O)C1CN2CCc3cc(OC)c(OC)cc3C2CC1OC(C)=O` (stereo not drawn) [BENZQUINAMIDE], the AC50 (in experiment [1]; in experiment [2]; in [3]; in [4]; on Motilin receptor; in [5]) was > 30 µM in each case. Moreover, the AC50 (in [6]; in experiment [7]; at Melanocortin receptor 3) was > 30 µM throughout.

In the case of `CCC(C)(Oc1ccc(C2(c3ccc(OC(C)(CC)C(=O)O)cc3)CCCCC2)cc1)C(=O)O` (stereo not drawn) [CLINOFIBRATE], the AC50 (in [1]; in experiment [2]; in [3]; in [4]; at Motilin receptor; in experiment [5]) was > 30 µM throughout. Besides, the AC50 (in [6]; in [7]; on Melanocortin receptor 3) was > 30 µM throughout.

Regarding `CCCCC[C@H](O)/C=C/[C@H]1[C@H](O)CC(=O)[C@@H]1C/C=C\CCCC(=O)O` [DINOPROSTONE], the AC50 in [1] was > 30 µM; in experiment [2], > 30 µM; in experiment [3], > 30 µM; in experiment [4], > 30 µM; on Motilin receptor, > 30 µM; in experiment [5], 11 µM. The AC50 (in [6]; in [7]; on Melanocortin receptor 3) was > 30 µM in each case.

`COC1=C(OC)C(=O)C(CCCCCCCCCCO)=C(C)C1=O` [IDEBENONE]: the AC50 was > 10 µM in experiment [1]; > 30 µM in [2]; > 30 µM in experiment [4]; > 10 µM on Motilin receptor; > 10 µM in [5]; > 10 µM in experiment [6]. The AC50 was > 30 µM in [7], > 30 µM on Melanocortin receptor 3 and > 10 µM in experiment [8].

As for `Nc1nc2c(c(=O)[nH]1)N(C=O)C(CNc1ccc(C(=O)N[C@@H](CCC(=O)O)C(=O)O)cc1)CN2` (stereo partly drawn) [LEUCOVORIN], the AC50 (in experiment [1]; in experiment [2]; in experiment [4]; on Motilin receptor; in experiment [5]; in experiment [6]) was > 30 µM in each case. Moreover, the AC50 (in [7]; on Melanocortin receptor 3; in experiment [8]) was > 30 µM in each case.

As for `CCn1cc(C(=O)O)c(=O)c2cc(F)c(N3CCN(C)CC3)cc21` [PEFLOXACIN], the half-maximal activity concentration (AC50) (in experiment [1]; in [2]; in experiment [4]; at Motilin receptor; in experiment [5]; in [6]) was > 30 µM each time. Moreover, the AC50 (in experiment [7]; at Melanocortin receptor 3; in experiment [8]) was > 30 µM throughout.

Regarding `CCCNC(C)C(=O)Nc1ccccc1C` (stereo not drawn) [PRILOCAINE], the AC50 in [1] was 21 µM; in [2], > 30 µM; in [4] it was > 30 µM; on Motilin receptor it was > 30 µM; in [5], > 30 µM; in experiment [6], > 30 µM. In addition, the AC50 (in experiment [7]; at Melanocortin receptor 3; in experiment [8]) was > 30 µM in each case.

Regarding `Cc1cc2nc3c(=O)[nH]c(=O)nc-3n(C[C@H](O)[C@H](O)[C@H](O)COP(=O)(O)O)c2cc1C` [RIBOFLAVIN 5'-PHOSPHATE], the AC50 (in experiment [1]; in [2]; in experiment [3]; in experiment [4]; on Motilin receptor; in [5]) was > 30 µM in each case. Further, the half-maximal activity concentration (AC50) (in [7]; on Melanocortin receptor 3) was > 30 µM in each case.

Regarding `CC(C)CC(N(C)C)C1(c2ccc(Cl)cc2)CCC1` (stereo not drawn) [SIBUTRAMINE], the AC50 in [1] is > 10 µM; in experiment [2] it was > 30 µM; in experiment [4], > 30 µM; at Motilin receptor, > 10 µM; in [5] it was > 30 µM; in experiment [6] it was > 30 µM. The values for the concentration at half-maximal activity (AC50) (in experiment [7]; at Melanocortin receptor 3; in [8]) were > 30 µM, > 30 µM and > 10 µM, respectively.

Consider `[H]/N=C(/N)N[C@H]1[C@H](O)[C@@H](O)[C@H](O[C@@H]2O[C@@H](C)[C@](O)(C=O)[C@H]2O[C@@H]2O[C@@H](CO)[C@H](O)[C@@H](O)[C@@H]2NC)[C@@H](N/C(N)=N\[H])[C@@H]1O` [STREPTOMYCIN], for which the AC50 (in [1]; in [2]; in experiment [4]; on Motilin receptor; in [5]; in experiment [6]) was > 30 µM each time. The AC50 in experiment [7] is > 30 µM; at Melanocortin receptor 3, > 30 µM; in experiment [8], > 10 µM.

`CC(C)(C)NC[C@H](O)COc1nsnc1N1CCOCC1` [TIMOLOL]: the concentration at half-maximal activity (AC50) (in experiment [1]; in experiment [2]; in [4]; on Motilin receptor; in experiment [5]; in [6]) was > 30 µM in each case. The concentration at half-maximal activity (AC50) was > 30 µM in experiment [7], > 30 µM at Melanocortin receptor 3 and 4.2 µM in experiment [8].

Consider `C=CC(N)CCC(=O)O` (stereo not drawn) [VIGABATRIN], for which the AC50 in [1] was > 10 µM; in experiment [3] it was > 30 µM; in experiment [4], > 10 µM; on Motilin receptor, > 10 µM; in experiment [5] it was > 30 µM; in experiment [6] it was > 10 µM. In addition, the AC50 (in [7]; at Melanocortin receptor 3) was > 10 µM in each case.
